Some targets named below: JNK1 (Homo sapiens, UniProt P45983); CSK (Homo sapiens, UniProt P41240); BTK (Homo sapiens, UniProt Q06187).
Common to all, as to assay: Kinase profile (33P ATP filter binding)
What all share (type): biochemical

In another test the target is PKBb (Homo sapiens, UniProt P31751). Conditions: read-out: Remaining protein kinase activity.
The next test concerns the target T1, EPH-B3 (Homo sapiens, UniProt P54753).
T1 sequence (P54753 34-998): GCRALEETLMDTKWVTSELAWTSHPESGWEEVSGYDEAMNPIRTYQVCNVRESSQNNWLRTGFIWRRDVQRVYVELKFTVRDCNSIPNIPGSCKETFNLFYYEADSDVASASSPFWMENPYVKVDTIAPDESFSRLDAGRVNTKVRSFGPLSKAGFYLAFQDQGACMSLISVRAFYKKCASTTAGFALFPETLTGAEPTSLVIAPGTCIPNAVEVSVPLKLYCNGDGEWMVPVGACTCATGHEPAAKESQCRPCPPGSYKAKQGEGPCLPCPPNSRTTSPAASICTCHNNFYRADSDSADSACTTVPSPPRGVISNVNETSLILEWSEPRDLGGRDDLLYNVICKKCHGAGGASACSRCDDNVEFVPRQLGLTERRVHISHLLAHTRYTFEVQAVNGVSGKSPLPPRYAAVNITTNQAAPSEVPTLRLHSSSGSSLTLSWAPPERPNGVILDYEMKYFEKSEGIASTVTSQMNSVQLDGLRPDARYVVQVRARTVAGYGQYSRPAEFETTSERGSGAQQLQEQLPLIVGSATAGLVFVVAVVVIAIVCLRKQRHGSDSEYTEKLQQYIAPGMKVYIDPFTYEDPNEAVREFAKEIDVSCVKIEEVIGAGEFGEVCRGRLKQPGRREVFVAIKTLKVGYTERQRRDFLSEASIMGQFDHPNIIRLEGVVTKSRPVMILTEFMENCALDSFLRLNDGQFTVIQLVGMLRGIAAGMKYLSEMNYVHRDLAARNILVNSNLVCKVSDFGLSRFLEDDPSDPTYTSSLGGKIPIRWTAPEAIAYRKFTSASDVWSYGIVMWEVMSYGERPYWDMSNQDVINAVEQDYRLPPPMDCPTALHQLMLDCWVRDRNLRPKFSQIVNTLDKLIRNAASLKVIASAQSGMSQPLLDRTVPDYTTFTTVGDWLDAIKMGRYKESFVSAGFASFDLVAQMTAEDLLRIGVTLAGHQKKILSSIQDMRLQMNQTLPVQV
Conditions: read-out: Remaining protein kinase activity.

The target of the next test is HIPK2 (Homo sapiens, UniProt Q9H2X6). Conditions: read-out: Remaining protein kinase activity.
Sequence of HIPK2 (Q9H2X6 whole entry): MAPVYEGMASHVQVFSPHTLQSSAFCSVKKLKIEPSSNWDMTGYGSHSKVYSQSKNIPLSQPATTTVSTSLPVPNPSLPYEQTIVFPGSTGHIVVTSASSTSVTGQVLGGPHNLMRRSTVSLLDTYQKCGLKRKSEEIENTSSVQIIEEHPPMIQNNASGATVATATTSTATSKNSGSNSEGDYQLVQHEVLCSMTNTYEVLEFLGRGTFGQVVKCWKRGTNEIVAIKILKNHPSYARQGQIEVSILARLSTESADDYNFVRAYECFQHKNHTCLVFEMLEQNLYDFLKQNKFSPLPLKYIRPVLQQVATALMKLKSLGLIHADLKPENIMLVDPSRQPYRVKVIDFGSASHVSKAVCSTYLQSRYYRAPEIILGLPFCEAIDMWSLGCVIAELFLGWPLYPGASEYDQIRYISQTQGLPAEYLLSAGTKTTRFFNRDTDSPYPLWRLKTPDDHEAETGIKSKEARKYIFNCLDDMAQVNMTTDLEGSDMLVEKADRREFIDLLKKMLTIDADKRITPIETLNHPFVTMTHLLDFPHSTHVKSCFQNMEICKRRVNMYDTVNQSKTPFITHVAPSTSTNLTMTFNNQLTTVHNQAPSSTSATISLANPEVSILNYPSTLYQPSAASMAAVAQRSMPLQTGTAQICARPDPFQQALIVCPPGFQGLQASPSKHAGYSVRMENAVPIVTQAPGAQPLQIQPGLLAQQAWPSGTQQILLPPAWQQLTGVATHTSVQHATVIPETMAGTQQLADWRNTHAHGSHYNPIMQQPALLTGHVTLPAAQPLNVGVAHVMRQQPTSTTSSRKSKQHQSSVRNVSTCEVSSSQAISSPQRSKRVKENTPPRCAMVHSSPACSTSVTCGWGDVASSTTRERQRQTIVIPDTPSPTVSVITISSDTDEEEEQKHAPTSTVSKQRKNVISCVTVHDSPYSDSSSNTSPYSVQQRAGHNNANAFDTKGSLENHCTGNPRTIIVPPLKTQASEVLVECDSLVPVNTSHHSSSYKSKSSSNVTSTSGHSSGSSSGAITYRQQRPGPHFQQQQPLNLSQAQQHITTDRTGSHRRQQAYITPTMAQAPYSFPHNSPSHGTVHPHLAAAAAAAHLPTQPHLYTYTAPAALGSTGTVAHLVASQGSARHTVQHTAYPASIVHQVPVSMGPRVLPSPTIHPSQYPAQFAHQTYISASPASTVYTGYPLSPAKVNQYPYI
The next test deals with S6K1 (Homo sapiens, UniProt P23443). The settings on record: read-out: Remaining protein kinase activity.
Sequence of S6K1 (P23443 whole entry, species assumed): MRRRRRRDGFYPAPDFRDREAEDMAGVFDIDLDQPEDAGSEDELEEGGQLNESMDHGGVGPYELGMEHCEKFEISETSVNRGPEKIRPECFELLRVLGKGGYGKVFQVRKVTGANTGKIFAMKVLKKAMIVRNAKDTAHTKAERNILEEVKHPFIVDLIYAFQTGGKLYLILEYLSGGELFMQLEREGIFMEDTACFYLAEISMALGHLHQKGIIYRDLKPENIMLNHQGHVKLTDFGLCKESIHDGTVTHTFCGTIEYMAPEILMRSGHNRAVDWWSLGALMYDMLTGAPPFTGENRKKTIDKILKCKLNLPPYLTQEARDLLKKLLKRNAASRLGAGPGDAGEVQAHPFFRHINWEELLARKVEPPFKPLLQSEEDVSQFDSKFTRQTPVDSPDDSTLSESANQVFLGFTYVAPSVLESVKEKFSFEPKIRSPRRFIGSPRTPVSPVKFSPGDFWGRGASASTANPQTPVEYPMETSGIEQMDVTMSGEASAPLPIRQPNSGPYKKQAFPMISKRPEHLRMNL
The target of another test is T2, MST2 (Homo sapiens, UniProt Q13188).
T2 sequence (Q13188 1-491): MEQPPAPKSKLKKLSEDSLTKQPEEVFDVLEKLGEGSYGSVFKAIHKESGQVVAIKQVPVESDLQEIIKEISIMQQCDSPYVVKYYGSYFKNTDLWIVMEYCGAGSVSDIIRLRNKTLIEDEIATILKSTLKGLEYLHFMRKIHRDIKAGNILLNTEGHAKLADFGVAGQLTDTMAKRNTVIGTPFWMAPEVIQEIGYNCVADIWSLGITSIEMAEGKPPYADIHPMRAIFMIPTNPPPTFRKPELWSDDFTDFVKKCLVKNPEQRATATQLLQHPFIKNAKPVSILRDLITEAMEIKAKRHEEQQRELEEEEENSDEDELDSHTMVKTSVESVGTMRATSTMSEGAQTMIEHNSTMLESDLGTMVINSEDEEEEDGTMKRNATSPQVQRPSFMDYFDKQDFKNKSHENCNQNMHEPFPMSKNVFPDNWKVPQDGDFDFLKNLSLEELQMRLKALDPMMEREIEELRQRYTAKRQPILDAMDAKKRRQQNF
The settings on record: read-out: Remaining protein kinase activity.

A further test concerns the target MSK1 (Homo sapiens, UniProt O75582). Conditions: read-out: Remaining protein kinase activity.
A further test deals with MNK2 (Homo sapiens, UniProt Q9HBH9). The settings on record: read-out: Remaining protein kinase activity.
Sequence of MNK2 (Q9HBH9 whole entry): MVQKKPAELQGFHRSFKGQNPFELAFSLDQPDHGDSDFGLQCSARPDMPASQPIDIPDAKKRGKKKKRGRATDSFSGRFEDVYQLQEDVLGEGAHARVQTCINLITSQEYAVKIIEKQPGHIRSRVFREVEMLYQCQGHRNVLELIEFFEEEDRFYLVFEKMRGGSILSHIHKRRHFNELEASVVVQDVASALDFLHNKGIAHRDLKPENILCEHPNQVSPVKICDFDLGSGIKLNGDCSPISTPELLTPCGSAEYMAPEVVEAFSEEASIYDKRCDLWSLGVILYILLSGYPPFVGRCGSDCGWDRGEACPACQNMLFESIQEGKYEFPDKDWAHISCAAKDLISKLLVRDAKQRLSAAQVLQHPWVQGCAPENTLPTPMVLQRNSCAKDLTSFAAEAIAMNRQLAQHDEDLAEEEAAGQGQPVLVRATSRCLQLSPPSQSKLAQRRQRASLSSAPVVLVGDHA
The target in a further test is T3, MKK6 (Homo sapiens, UniProt P52564).
T3 sequence (P52564 1-334): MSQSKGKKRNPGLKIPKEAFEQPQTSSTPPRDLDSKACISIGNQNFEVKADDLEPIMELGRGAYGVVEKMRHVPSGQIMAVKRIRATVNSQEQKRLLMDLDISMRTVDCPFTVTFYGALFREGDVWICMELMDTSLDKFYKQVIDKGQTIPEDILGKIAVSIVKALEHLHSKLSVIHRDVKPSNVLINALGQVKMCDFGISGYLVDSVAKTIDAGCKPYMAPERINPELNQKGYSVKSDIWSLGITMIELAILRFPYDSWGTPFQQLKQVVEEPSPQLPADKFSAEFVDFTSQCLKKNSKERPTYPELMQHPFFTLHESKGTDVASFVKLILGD
The settings on record: read-out: Remaining protein kinase activity.

Each structure is given as a SMILES string. Where two headings read alike, the source gives them in different places.

Sequence of CSK (P41240 whole entry): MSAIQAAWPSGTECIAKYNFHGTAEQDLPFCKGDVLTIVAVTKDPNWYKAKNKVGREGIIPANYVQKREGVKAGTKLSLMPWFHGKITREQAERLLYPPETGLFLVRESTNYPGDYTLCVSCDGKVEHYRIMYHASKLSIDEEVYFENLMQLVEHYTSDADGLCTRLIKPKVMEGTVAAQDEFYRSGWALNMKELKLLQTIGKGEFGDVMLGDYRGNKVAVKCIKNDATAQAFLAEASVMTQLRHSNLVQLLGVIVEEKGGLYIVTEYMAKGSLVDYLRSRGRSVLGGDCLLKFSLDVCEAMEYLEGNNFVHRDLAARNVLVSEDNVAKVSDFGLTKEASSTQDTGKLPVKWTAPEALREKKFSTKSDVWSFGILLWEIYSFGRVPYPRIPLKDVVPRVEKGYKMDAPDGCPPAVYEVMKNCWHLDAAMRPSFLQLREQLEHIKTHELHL
Sequence of BTK (Q06187 whole entry): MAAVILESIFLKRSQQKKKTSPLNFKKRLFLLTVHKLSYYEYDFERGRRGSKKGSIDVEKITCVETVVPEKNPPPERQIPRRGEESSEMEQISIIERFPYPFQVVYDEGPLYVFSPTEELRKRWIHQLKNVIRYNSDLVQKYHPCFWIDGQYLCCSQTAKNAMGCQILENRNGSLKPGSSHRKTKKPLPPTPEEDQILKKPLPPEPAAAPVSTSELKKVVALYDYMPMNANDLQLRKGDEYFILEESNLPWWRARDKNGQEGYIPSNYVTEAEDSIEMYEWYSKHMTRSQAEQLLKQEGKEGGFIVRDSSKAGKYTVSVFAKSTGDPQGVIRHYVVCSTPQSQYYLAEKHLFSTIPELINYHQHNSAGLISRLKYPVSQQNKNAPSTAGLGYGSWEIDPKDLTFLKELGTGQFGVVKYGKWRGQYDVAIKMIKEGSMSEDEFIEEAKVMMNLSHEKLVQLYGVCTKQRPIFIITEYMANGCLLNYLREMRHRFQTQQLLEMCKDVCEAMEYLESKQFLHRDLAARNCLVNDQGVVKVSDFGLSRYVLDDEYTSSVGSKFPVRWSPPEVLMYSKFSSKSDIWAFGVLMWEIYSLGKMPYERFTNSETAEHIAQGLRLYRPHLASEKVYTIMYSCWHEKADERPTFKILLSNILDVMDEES
Sequence of PKBb (P31751 whole entry): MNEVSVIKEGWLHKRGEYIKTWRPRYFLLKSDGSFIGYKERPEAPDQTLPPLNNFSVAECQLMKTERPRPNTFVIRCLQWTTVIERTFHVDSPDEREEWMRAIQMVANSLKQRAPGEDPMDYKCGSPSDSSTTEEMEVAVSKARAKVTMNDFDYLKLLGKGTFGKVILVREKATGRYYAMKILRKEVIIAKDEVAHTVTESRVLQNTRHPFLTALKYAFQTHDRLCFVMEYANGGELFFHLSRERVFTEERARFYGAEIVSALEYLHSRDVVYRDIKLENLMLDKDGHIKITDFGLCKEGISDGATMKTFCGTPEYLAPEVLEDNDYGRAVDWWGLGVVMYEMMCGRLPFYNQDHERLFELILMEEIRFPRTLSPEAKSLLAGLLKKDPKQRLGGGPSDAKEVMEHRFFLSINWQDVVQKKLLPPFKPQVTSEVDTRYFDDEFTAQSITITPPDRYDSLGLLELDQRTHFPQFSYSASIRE
Sequence of JNK1 (P45983 whole entry, species assumed): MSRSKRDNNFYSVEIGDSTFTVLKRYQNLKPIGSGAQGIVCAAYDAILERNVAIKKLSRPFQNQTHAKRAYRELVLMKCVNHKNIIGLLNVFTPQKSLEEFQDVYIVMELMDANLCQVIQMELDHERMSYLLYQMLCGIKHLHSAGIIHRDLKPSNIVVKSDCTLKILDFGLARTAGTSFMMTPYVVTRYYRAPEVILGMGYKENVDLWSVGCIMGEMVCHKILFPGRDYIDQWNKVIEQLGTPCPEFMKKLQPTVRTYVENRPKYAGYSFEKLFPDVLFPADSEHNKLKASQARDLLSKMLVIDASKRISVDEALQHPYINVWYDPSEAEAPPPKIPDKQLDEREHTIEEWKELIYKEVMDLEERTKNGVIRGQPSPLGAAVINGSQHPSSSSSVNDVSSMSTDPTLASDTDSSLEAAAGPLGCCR
Sequence of MSK1 (O75582 whole entry): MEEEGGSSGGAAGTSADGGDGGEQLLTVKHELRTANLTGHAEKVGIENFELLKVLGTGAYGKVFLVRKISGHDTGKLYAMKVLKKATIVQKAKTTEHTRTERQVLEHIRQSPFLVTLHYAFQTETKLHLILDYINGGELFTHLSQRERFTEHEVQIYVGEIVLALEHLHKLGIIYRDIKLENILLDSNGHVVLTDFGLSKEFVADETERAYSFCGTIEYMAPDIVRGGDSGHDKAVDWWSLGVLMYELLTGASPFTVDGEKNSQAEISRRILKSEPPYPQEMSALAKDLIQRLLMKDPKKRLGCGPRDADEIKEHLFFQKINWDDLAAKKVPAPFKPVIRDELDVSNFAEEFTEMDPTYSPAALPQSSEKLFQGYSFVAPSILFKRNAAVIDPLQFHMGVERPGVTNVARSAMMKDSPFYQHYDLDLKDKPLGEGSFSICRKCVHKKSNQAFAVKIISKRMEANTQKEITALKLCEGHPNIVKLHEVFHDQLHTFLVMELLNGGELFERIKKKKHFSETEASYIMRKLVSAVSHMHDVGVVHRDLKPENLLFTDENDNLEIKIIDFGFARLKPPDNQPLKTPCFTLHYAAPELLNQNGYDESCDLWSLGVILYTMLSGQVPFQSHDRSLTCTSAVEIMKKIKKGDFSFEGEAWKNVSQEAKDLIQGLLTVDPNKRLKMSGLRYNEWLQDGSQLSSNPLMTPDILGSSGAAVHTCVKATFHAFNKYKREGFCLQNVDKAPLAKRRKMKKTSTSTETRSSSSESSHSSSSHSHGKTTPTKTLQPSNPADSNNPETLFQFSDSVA

Take `COc1ccc2sc(-c3cncc(N)c3)nc2c1` [compound 1, 5-(5-Methoxybenzo[d]thiazol-2-yl)pyridin-3-amine]: the remaining activity at 1 µM on PKBb (PKBb, 1 μM) is 123%; at EPH-B3 (EPH-B3, 1 μM) it was 130%; at HIPK2 (HIPK2, 1 μM) it was 79%; on S6K1 (S6K1, 1 μM), 118%; at MST2 (MST2, 1 μM), 124%; on MSK1 (MSK1, 1 μM) it was 109%. Besides, the remaining activity at 1 µM turned out to be 90% on MNK2 (MNK2, 1 μM) and 120% on MKK6 (MKK6, 1 μM). Besides, the remaining activity at 100 µM at PKBb (PKBb, 100 μM) was determined as 15%; on EPH-B3 (EPH-B3, 100 μM), 71%; at HIPK2 (HIPK2, 100 μM), 10%; at S6K1 (S6K1, 100 μM), 58%; on MST2 (MST2, 100 μM) it was 32%; at MSK1 (MSK1, 100 μM), 60%. Besides, the remaining activity at 100 µM at MNK2 (MNK2, 100 μM) was 27%; at MKK6 (MKK6, 100 μM), 118%. Also, the “Remaining protein kinase activity” value at JNK1 (1 μM) was found to be 112%; on JNK1 (100 μM), 94%; at CSK (1 μM), 116%; at CSK (100 μM) it was 78%; on BTK (1 μM) it was 101%; on BTK (100 μM), 31%.

Turning to `COc1ccc2sc(-c3cncc(NC(C)=O)c3)nc2c1` [PST-001, N-(5-(5-Methoxybenzo[d]thiazol-2-yl)pyridin-3-yl)acetamide], the remaining activity at 1 µM came out at 112% on PKBb; 147% on EPH-B3; 90% on HIPK2; 113% at S6K1; 120% at MST2; 104% on MSK1. The figures for the remaining activity at 1 µM at MNK2 and on MKK6 were 106% and 140%, respectively. For the same compound, the remaining activity at 100 µM on PKBb amounted to 98%; on EPH-B3 it was 130%; on HIPK2 it was 77%; at S6K1 it was 81%; on MST2, 54%; at MSK1 it was 64%. Besides, the remaining activity at 100 µM on MNK2 came to 66%; on MKK6 it was 115%. Also, the “Remaining protein kinase activity” value is given as 113% on JNK1 (1 μM); 130% on JNK1 (100 μM); 121% on CSK (1 μM); 126% on CSK (100 μM); 92% on BTK (1 μM); 86% at BTK (100 μM).

One may read the remaining activity as the signal under treatment as a percentage of the control signal.
